Test results reported in PubChem BioAssay (NCI).
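Cells were grown in 96-well plates and exposed to each compound for 48 hours at five concentrations; endpoints were interpolated linearly between bracketing concentrations, or set to the highest concentration if not reached. The concentration for full growth arrest is given as TGI.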

Assays:
Assay in all cases: growth of human tumour cells (NCI), 48 h
OVCAR-8 ovarian = test system: OVCAR-8 ovarian
M14 melanoma = test system: M14 melanoma
SNB-19 CNS = test system: SNB-19 CNS
HCT-116 colon = test system: HCT-116 colon
K-562 leukemia = test system: K-562 leukemia
HCC-2998 colon = test system: HCC-2998 colon
ACHN renal = test system: ACHN renal
UACC-257 melanoma = test system: UACC-257 melanoma
IGROV1 ovarian = test system: IGROV1 ovarian
A549 NSCLC = test system: A549 NSCLC
SR leukemia = test system: SR leukemia
OVCAR-5 ovarian = test system: OVCAR-5 ovarian
NCI-H226 lung = test system: NCI-H226 lung
NCI-H23 lung = test system: NCI-H23 lung
KM12 colon = test system: KM12 colon
786-0 renal = test system: 786-0 renal
MDA-N = test system: MDA-N
BT-549 breast = test system: BT-549 breast
MOLT-4 leukemia = test system: MOLT-4 leukemia
MALME-3M melanoma = test system: MALME-3M melanoma
HT29 colon = test system: HT29 colon
UO-31 renal = test system: UO-31 renal
SN12C renal = test system: SN12C renal
EKVX NSCLC = test system: EKVX NSCLC
RPMI-8226 leukemia = test system: RPMI-8226 leukemia
HL-60(TB) leukemia = test system: HL-60(TB) leukemia
NCI-H460 lung = test system: NCI-H460 lung
COLO 205 colon = test system: COLO 205 colon
UACC-62 melanoma = test system: UACC-62 melanoma
RXF 393 renal = test system: RXF 393 renal
SW-620 colon = test system: SW-620 colon
SK-MEL-2 melanoma = test system: SK-MEL-2 melanoma
MDA-MB-231 breast = test system: MDA-MB-231 breast
SK-MEL-28 melanoma = test system: SK-MEL-28 melanoma
TK-10 renal = test system: TK-10 renal
SNB-75 CNS = test system: SNB-75 CNS
U251 CNS = test system: U251 CNS
PC-3 prostate = test system: PC-3 prostate
SK-MEL-5 melanoma = test system: SK-MEL-5 melanoma
HOP-92 NSCLC = test system: HOP-92 NSCLC
HOP-62 NSCLC = test system: HOP-62 NSCLC
HCT-15 colon = test system: HCT-15 colon
A498 renal = test system: A498 renal
HS 578T breast = test system: HS 578T breast
MCF7 breast = test system: MCF7 breast
MDA-MB-435 = test system: MDA-MB-435
NCI-H522 lung = test system: NCI-H522 lung
CCRF-CEM leukemia = test system: CCRF-CEM leukemia
OVCAR-4 ovarian = test system: OVCAR-4 ovarian
LOX IMVI melanoma = test system: LOX IMVI melanoma
SK-OV-3 ovarian = test system: SK-OV-3 ovarian
NCI/ADR-RES ovarian = test system: NCI/ADR-RES ovarian
SF-268 CNS = test system: SF-268 CNS
CAKI-1 renal = test system: CAKI-1 renal
OVCAR-3 ovarian = test system: OVCAR-3 ovarian
SF-295 CNS = test system: SF-295 CNS

COc1ccc(C2OC(=O)c3c2ccc2ccccc32)c(C)c1 (configuration not stated)
TGI (OVCAR-8 ovarian): > 100 µM
TGI (M14 melanoma): > 100 µM
TGI (SNB-19 CNS): > 100 µM
TGI (HCT-116 colon): > 100 µM
TGI (K-562 leukemia): > 100 µM
TGI (HCC-2998 colon): 3.34 µM
TGI (ACHN renal): > 100 µM
TGI (UACC-257 melanoma): 80.5 µM
TGI (IGROV1 ovarian): > 100 µM
TGI (A549 NSCLC): 73.4 µM
TGI (SR leukemia): > 100 µM
TGI (OVCAR-5 ovarian): > 100 µM
TGI (NCI-H226 lung): 67.6 µM
TGI (NCI-H23 lung): > 100 µM
TGI (KM12 colon): > 100 µM
TGI (786-0 renal): 18.1 µM
TGI (MDA-N): 4.34 µM
TGI (BT-549 breast): 69.4 µM
TGI (MOLT-4 leukemia): 37 µM
TGI (MALME-3M melanoma): 17.3 µM
TGI (HT29 colon): > 100 µM
TGI (UO-31 renal): > 100 µM
TGI (SN12C renal): 88.2 µM
TGI (EKVX NSCLC): > 100 µM
TGI (RPMI-8226 leukemia): 60.9 µM
TGI (HL-60(TB) leukemia): 5.38 µM
TGI (NCI-H460 lung): > 100 µM
TGI (COLO 205 colon): 21.9 µM
TGI (UACC-62 melanoma): 90.5 µM
TGI (RXF 393 renal): > 100 µM
TGI (SW-620 colon): > 100 µM
TGI (SK-MEL-2 melanoma): 7.52 µM
TGI (MDA-MB-231 breast): > 100 µM
TGI (SK-MEL-28 melanoma): > 100 µM
TGI (TK-10 renal): 17.7 µM
TGI (SNB-75 CNS): 30.6 µM
TGI (U251 CNS): 20.2 µM
TGI (PC-3 prostate): 97.1 µM
TGI (SK-MEL-5 melanoma): 6.82 µM
TGI (HOP-92 NSCLC): 80.1 µM
TGI (HOP-62 NSCLC): 50 µM
TGI (HCT-15 colon): 19.9 µM
TGI (A498 renal): 21.2 µM
TGI (HS 578T breast): > 100 µM
TGI (MCF7 breast): 10.1 µM

COP(=O)(OC)C(N)CCSC (configuration not stated)
TGI (OVCAR-8 ovarian): > 100 µM
TGI (MDA-MB-435): > 100 µM
TGI (M14 melanoma): > 100 µM
TGI (SNB-19 CNS): > 100 µM
TGI (HCT-116 colon): > 100 µM
TGI (K-562 leukemia): > 100 µM
TGI (NCI-H522 lung): > 100 µM
TGI (ACHN renal): > 100 µM
TGI (UACC-257 melanoma): > 100 µM
TGI (IGROV1 ovarian): > 100 µM
TGI (CCRF-CEM leukemia): > 100 µM
TGI (A549 NSCLC): > 100 µM
TGI (OVCAR-4 ovarian): > 100 µM
TGI (SR leukemia): > 100 µM
TGI (OVCAR-5 ovarian): > 100 µM
TGI (NCI-H226 lung): > 100 µM
TGI (NCI-H23 lung): > 100 µM
TGI (KM12 colon): > 100 µM
TGI (786-0 renal): > 100 µM
TGI (MDA-N): > 100 µM
TGI (BT-549 breast): > 100 µM
TGI (MOLT-4 leukemia): > 100 µM
TGI (MALME-3M melanoma): > 100 µM
TGI (HT29 colon): > 100 µM
TGI (UO-31 renal): > 100 µM
TGI (SN12C renal): > 100 µM
TGI (EKVX NSCLC): > 100 µM
TGI (RPMI-8226 leukemia): > 100 µM
TGI (LOX IMVI melanoma): > 100 µM
TGI (HL-60(TB) leukemia): > 100 µM
TGI (NCI-H460 lung): > 100 µM
TGI (COLO 205 colon): > 100 µM
TGI (UACC-62 melanoma): > 100 µM
TGI (SK-OV-3 ovarian): > 100 µM
TGI (NCI/ADR-RES ovarian): > 100 µM
TGI (SW-620 colon): > 100 µM
TGI (SK-MEL-2 melanoma): > 100 µM
TGI (SF-268 CNS): > 100 µM
TGI (SK-MEL-28 melanoma): > 100 µM
TGI (TK-10 renal): > 100 µM
TGI (CAKI-1 renal): > 100 µM
TGI (OVCAR-3 ovarian): > 100 µM
TGI (SNB-75 CNS): > 100 µM
TGI (SF-295 CNS): > 100 µM
TGI (U251 CNS): > 100 µM
TGI (PC-3 prostate): > 100 µM
TGI (SK-MEL-5 melanoma): > 100 µM
TGI (HOP-92 NSCLC): > 100 µM
TGI (HOP-62 NSCLC): > 100 µM
TGI (HCT-15 colon): > 100 µM
TGI (HS 578T breast): > 100 µM
TGI (MCF7 breast): > 100 µM
